The record followed here is patent US20200016159A1, “N3-CYCLICALLY SUBSTITUTED THIENOURACILS AND USE THEREOF” (Bayer Aktiengesellschaft, priority 2016, published 2020).

The assay deals with T1, human adenosine A2b receptor (Homo sapiens, UniProt P29275).
T1 sequence (P29275 1-332): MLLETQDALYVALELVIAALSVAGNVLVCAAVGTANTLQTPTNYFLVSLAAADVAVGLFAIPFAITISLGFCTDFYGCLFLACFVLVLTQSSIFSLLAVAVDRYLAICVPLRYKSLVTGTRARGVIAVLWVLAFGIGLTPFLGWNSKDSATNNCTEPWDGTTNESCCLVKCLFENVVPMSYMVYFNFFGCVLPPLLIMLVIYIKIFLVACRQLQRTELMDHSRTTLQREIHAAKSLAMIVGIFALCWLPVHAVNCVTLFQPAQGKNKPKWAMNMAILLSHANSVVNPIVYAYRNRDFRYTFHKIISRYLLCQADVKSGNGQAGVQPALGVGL
The experiment in a line: Cellular in vitro reporter gene test for A2b receptor activity (antagonism of NECA). The following applies: recombinant CHO-K1 cells, CRE-luciferase reporter, co-incubation with EC50 concentration of NECA, 3 hours. Format: cell-based. The arrangement: expressed in transfected cells; host or cells: CHO-K1 (Chinese hamster ovary) with CRE-luciferase reporter. In short, it runs like this: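 CHO-K1 cells expressing recombinant human A2b receptor plus a CRE-driven firefly luciferase reporter. Compounds co-incubated with NECA at its same-day EC50 concentration; luminescence read 3 hours after NECA addition. IC50 values, sometimes means of several determinations rounded to two significant figures.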

Take `Cc1c(CN2CCNC2=O)sc2c1c(=O)n(C1CC1C)c(=O)n2CCC(F)(F)F` (racemic) [Example 93, 5-Methyl-3-(2-methylcyclopropyl)-6-[(2-oxoimidazolidin-1-yl)methyl]-1-(3,3,3-trifluoropropyl)thieno[2,3-d]pyrimidine-2,4(1H,3H)-dione]: the half-maximal inhibitory concentration (IC50) came to 1.8 nM.
Turning to `Cc1c(CN2CCNC2=NC#N)sc2c1c(=O)n(C1CC1)c(=O)n2CCC(F)(F)F` [Example 11, [1-{[3-Cyclopropyl-5-methyl-2,4-dioxo-1-(3,3,3-trifluoropropyl)-1,2,3,4-tetrahydrothieno[2,3-d]pyrimidin-6-yl]methyl}imidazolidin-2-ylidene]cyanamide], the IC50 stood at 3.3 nM.
With `COCCn1c(=O)n(C2CCCC2)c(=O)c2c(C)c(CN3CCNC3=O)sc21` [Example 189, 3-Cyclopentyl-1-(2-methoxyethyl)-5-methyl-6-[(2-oxoimidazolidin-1-yl)methyl]thieno[2,3-d]pyrimidine-2,4(1H,3H)-dione], the half-maximal inhibitory concentration (IC50) stood at 40 nM.
Turning to `Cc1c(Cn2cc[nH]c2=O)sc2c1c(=O)n(C1CC1C)c(=O)n2CCOC(F)(F)F` (single isomer, unassigned) [Example 271, 5-Methyl-3-(2-methylcyclopropyl)-6-[(2-oxo-2,3-dihydro-1H-imidazol-1-yl)methyl]-1-[2-(trifluoromethoxy)ethyl]thieno[2,3-d]pyrimidine-2,4(1H,3H)-dione], the IC50 turned out to be 1.4 nM.
As to `Cc1c(CN2CCNC(=O)C2=O)sc2c1c(=O)n(C1(C)CC1)c(=O)n2CCC(F)(F)F` [Example 59, 6-[(2,3-Dioxopiperazin-1-yl)methyl]-5-methyl-3-(1-methylcyclopropyl)-1-(3,3,3-trifluoropropyl)thieno[2,3-d]pyrimidine-2,4(1H,3H)-dione], the 50% inhibitory concentration (IC50) turned out to be 9.3 nM.
In the case of `Cc1c(CN2CCNC2=O)sc2c1c(=O)n(C1CC1C)c(=O)n2CCC(F)(F)C(F)F` (single isomer, unassigned) [Example 247, 5-Methyl-3-(2-methylcyclopropyl)-6-[(2-oxoimidazolidin-1-yl)methyl]-1-(3,3,4,4-tetrafluorobutyl)thieno[2,3-d]pyrimidine-2,4(1H,3H)-dione], the 50% inhibitory concentration (IC50) came out at 3.5 nM.
Turning to `Cc1c(CN2CCNC2=O)sc2c1c(=O)n(C1(C)CC1)c(=O)n2CCOC(F)(F)F` [Example 75, 5-Methyl-3-(1-methylcyclopropyl)-6-[(2-oxoimidazolidin-1-yl)methyl]-1-[2-(trifluormethoxy)ethyl]thieno[2,3-d]pyrimidine-2,4(1H,3H)-dione], the IC50 stood at 3.3 nM.
With `Cc1c(Cn2nc[nH]c2=O)sc2c1c(=O)n(C1CCCC1)c(=O)n2CCC(F)(F)F` [Example 188, 3-Cyclopentyl-5-methyl-6-[(5-oxo-4,5-dihydro-1H-1,2,4-triazol-1-yl)methyl]-1-(3,3,3-trifluoropropyl)thieno[2,3-d]pyrimidine-2,4(1H,3H)-dione], the IC50 came to 100 nM.
The same measure for `COCCn1c(=O)n(C2(C)CCC2)c(=O)c2c(C)c(CN3CCNC3=NC(=O)OC)sc21` [Example 141, Methyl [1-{[1-(2-methoxyethyl)-5-methyl-3-(1-methylcyclobutyl)-2,4-dioxo-1,2,3,4-tetrahydrothieno[2,3-d]pyrimidin-6-yl]methyl}imidazolidine-2-ylidene]carbamate]: 110 nM; for `COCCn1c(=O)n(C2CCC2)c(=O)c2c(C)c(CN3CCNC3=O)sc21` [Example 115, 3-Cyclobutyl-1-(2-methoxyethyl)-5-methyl-6-[(2-oxoimidazolidin-1-yl)methyl]thieno[2,3-d]pyrimidine-2,4(1H,3H)-dione]: 4.3 nM.
Turning to `Cc1c(Cn2nc[nH]c2=O)sc2c1c(=O)n(C1CC1)c(=O)n2CCCC(F)(F)F` [Example 201, 3-Cyclopropyl-5-methyl-6-[(5-oxo-4,5-dihydro-1H-1,2,4-triazol-1-yl)methyl]-1-(4,4,4-trifluorobutyl)thieno[2,3-d]pyrimidine-2,4(1H,3H)-dione], the IC50 worked out at 53 nM.
Turning to `Cc1c(CN2CCNC2=O)sc2c1c(=O)n(C1CC1C)c(=O)n2CCOC(F)(F)F` (racemic) [Example 261, 5-Methyl-3-(2-methylcyclopropyl)-6-[(2-oxoimidazolidin-1-yl)methyl]-1-[2-(trifluoromethoxy)ethyl]thieno[2,3-d]pyrimidine-2,4(1H,3H)-dione], the IC50 was determined as 15 nM.
The same measure for `CO[C@H]1C[C@@H](n2c(=O)c3c(C)c(CN4CCNC(=O)C4=O)sc3n(CCC(F)(F)F)c2=O)C1` [Example 157, 6-[(2,3-Dioxopiperazin-1-yl)methyl]-3-(cis-3-methoxycyclobutyl)-5-methyl-1-(3,3,3-trifluoropropyl)thieno[2,3-d]pyrimidine-2,4(1H,3H)-dione]: 63 nM; for `COCCn1c(=O)n(C2CC3(CCC3)C2)c(=O)c2c(C)c(Cn3nc[nH]c3=O)sc21` [Example 183, 1-(2-Methoxyethyl)-5-methyl-6-[(5-oxo-4,5-dihydro-1H-1,2,4-triazol-1-yl)methyl]-3-(spiro[3.3]hept-2-yl)thieno[2,3-d]pyrimidine-2,4(1H,3H)-dione]: 70 nM.
As to `COCCn1c(=O)n(C2CC2OC)c(=O)c2c(C)c(Cn3nc[nH]c3=O)sc21` (single isomer, unassigned) [Example 310, 3-(2-Methoxycyclopropyl)-1-(2-methoxyethyl)-5-methyl-6-[(5-oxo-4,5-dihydro-1H-1,2,4-triazol-1-yl)methyl]thieno[2,3-d]pyrimidine-2,4(1H,3H)-dione], the IC50 turned out to be 3900 nM.
The same measure for `Cc1c(Cn2nc[nH]c2=O)sc2c1c(=O)n(C1(C)CC1)c(=O)n2C[C@H]1CCCO1` [Example 83, 5-Methyl-3-(1-methylcyclopropyl)-6-[(5-oxo-4,5-dihydro-1H-1,2,4-triazol-1-yl)methyl]-1-[(2R)-tetrahydrofuran-2-ylmethyl]thieno[2,3-d]pyrimidine-2,4(1H, 3H)-dione]: 130 nM.
As to `Cc1c(CN2CCNC2=O)sc2c1c(=O)n(C1CC1C)c(=O)n2CC(F)F` (single isomer, unassigned) [Example 235, 1-(2,2-Difluoroethyl)-5-methyl-3-(2-methylcyclopropyl)-6-[(2-oxoimidazolidin-1-yl)methyl]thieno[2,3-d]pyrimidine-2,4(1H,3H)-dione], the IC50 came to 18 nM.
In the case of `CCOCCn1c(=O)n(C2(C)CC2)c(=O)c2c(C)c(Cn3nc[nH]c3=O)sc21` [Example 78, 1-(2-Ethoxyethyl)-5-methyl-3-(1-methylcyclopropyl)-6-[(5-oxo-4,5-dihydro-1H-1,2,4-triazol-1-yl)methyl]thieno[2,3-d]pyrimidine-2,4(1H,3H)-dione], the half-inhibitory concentration (IC50) came to 560 nM.
The same measure for `COCCn1c(=O)n(C2CC2C)c(=O)c2c(C)c(CN3CCNC3=O)sc21` (single isomer, unassigned) [Example 259, 1-(2-Methoxyethyl)-5-methyl-3-(2-methylcyclopropyl)-6-[(2-oxoimidazolidin-1-yl)methyl]thieno[2,3-d]pyrimidine-2,4(1H,3H)-dione]: 4.1 nM; for `Cc1c(Cn2nc[nH]c2=O)sc2c1c(=O)n([C@H]1C[C@@H]1C)c(=O)n2CCCF` [Example 322, 1-(3-Fluoropropyl)-5-methyl-3-[(1S,2S)-2-methylcyclopropyl]-6-[(5-oxo-4,5-dihydro-H-1,2,4-triazol-1-yl)methyl]thieno[2,3-d]pyrimidine-2,4(1H,3H)-dione]: 14 nM.
